Patent publication US20220088016A1, “CANCER TREATMENT USING MULTI-TARGETED KINASE INHIBITOR IN COMBINATION OF PROTEIN KINASE BIOMARKERS” (ZHEJIANG CROWNMAB BIOTECH CO. LTD., priority 2019, published 2022)

Experiments:
Assay in all cases: Kinase profiling
Assay type in all cases: binding
Conditions in all cases: read-out: % Ctrl @ 1000 nM
[1] = target: DCAMKL2 (Homo sapiens, UniProt Q8N568)
[2] = target: ERK5 (Homo sapiens, UniProt Q13164)
[3] = target: CDK7 (Homo sapiens, UniProt P50613)
[4] = target: PCTK3 (Homo sapiens, UniProt Q07002)
Sequence of PCTK3 (Q07002 whole entry): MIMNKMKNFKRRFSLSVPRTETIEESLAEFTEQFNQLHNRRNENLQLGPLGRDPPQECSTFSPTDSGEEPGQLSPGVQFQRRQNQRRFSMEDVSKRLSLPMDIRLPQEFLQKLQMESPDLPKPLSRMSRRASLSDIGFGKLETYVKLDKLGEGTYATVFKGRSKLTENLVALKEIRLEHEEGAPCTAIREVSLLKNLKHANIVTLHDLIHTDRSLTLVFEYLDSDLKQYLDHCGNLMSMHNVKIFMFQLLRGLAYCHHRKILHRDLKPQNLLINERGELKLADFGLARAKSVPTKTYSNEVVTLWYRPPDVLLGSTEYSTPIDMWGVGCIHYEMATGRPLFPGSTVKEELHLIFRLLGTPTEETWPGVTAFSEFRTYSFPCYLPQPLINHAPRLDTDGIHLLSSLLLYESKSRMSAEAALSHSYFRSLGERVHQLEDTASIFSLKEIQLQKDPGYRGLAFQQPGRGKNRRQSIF

[5] = target: CDKL1 (Homo sapiens, UniProt Q00532)
[6] = target: RSK1 (Kin.Dom.2-C-terminal) (Homo sapiens, UniProt Q15418)
[7] = target: CDKL3 (Homo sapiens, UniProt Q8IVW4)
[8] = target: HPK1 (Homo sapiens, UniProt Q92918)
Sequence of HPK1 (Q92918 whole entry): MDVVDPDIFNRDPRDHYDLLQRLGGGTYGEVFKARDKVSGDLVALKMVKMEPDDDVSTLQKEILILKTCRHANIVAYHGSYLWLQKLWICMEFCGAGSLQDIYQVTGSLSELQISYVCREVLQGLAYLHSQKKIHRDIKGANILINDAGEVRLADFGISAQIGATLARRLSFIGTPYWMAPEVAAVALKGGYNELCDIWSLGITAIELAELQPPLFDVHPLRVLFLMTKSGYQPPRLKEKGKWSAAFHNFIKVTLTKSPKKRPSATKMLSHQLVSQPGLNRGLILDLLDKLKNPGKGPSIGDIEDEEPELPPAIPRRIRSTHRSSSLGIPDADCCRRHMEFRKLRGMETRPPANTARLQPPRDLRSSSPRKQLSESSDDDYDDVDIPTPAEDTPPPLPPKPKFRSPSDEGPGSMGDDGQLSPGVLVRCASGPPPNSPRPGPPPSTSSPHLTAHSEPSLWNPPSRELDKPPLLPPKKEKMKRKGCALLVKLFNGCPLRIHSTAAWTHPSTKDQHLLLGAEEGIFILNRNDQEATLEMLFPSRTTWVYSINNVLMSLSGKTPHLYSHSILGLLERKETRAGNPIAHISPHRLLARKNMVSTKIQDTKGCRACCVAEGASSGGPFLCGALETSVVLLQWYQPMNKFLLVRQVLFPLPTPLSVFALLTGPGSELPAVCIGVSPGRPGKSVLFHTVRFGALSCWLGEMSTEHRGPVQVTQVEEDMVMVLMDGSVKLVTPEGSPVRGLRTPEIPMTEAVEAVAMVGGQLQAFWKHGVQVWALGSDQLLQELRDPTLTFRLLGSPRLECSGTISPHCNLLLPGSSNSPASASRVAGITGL

[9] = target: ABL1 (H396P)-phosphorylated (Homo sapiens, UniProt P00519, H396P)
[10] = target: PIP5K1C (Homo sapiens, UniProt O60331)
Sequence of PIP5K1C (O60331 whole entry): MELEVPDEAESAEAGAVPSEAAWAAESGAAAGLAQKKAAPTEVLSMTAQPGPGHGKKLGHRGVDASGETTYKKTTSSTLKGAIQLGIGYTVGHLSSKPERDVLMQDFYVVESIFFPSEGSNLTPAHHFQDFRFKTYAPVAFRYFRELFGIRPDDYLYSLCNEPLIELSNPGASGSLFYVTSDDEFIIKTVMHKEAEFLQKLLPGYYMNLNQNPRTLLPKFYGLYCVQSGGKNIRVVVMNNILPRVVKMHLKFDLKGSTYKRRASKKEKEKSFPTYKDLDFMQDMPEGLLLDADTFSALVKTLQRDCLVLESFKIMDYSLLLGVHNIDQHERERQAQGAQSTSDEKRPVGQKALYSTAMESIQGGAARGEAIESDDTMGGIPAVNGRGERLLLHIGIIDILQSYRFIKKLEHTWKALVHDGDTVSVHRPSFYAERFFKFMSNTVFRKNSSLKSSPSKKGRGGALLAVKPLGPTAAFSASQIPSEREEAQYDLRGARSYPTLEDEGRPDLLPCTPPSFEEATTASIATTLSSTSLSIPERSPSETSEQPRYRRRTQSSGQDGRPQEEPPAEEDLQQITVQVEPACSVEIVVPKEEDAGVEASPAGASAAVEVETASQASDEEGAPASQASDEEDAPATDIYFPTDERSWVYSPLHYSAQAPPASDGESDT

[11] = target: MAP4K3 (Homo sapiens, UniProt Q8IVH8)
[12] = target: ITK (Homo sapiens, UniProt Q08881)
[13] = target: CSNK1A1 (Homo sapiens, UniProt P48729)
[14] = target: KIT (V559D) (Homo sapiens, UniProt P10721, V559D)
[15] = target: HIPK3 (Homo sapiens, UniProt Q9H422)
[16] = target: T1, MST1R (Homo sapiens, UniProt Q04912)
T1 construct: T7 phage fusion (stated for most kinases of the panel only); made in house; host or cells: T7 phage in E. coli (BL21-derived) or HEK-293 cells
T1 sequence (Q04912 25-1400): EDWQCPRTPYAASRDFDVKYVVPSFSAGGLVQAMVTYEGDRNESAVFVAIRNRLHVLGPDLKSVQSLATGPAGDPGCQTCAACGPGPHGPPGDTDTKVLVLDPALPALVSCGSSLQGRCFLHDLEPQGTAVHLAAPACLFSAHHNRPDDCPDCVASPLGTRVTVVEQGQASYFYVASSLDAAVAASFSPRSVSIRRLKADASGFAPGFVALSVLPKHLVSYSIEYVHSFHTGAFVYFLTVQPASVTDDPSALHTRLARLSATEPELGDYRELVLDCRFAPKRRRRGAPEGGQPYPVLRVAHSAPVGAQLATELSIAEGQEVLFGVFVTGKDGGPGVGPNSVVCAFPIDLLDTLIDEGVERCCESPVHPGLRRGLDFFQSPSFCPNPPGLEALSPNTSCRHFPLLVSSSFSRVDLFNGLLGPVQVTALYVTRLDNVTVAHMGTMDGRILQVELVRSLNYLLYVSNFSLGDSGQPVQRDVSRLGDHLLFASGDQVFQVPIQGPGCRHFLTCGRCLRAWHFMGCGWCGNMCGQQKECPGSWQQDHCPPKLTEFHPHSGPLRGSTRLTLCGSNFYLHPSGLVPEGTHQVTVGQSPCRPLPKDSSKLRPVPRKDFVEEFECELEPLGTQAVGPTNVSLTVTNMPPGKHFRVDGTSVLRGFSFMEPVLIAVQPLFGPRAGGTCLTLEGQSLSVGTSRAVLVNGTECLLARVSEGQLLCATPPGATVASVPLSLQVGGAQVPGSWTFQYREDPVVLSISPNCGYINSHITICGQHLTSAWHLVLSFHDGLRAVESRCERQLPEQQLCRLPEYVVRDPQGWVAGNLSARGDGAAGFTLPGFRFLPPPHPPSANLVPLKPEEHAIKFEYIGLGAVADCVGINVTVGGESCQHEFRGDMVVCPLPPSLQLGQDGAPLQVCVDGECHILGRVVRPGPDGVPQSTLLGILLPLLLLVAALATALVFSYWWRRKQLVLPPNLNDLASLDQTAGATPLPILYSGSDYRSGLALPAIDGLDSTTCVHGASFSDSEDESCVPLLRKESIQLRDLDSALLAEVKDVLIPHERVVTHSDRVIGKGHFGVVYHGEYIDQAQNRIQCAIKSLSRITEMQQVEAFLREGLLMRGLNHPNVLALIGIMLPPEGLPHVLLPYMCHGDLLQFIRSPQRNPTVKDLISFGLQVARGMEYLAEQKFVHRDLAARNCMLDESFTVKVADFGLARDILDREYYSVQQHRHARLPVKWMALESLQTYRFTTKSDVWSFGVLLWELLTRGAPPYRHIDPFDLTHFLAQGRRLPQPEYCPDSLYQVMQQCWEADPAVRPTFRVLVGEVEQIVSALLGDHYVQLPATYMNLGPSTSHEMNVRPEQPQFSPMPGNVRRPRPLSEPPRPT

[17] = target: LATS2 (Homo sapiens, UniProt Q9NRM7)
[18] = target: FGFR4 (Homo sapiens, UniProt P22455)
[19] = target: LRRK2 (G2019S) (Homo sapiens, UniProt Q5S007, G2019S)
[20] = target: SRMS (Homo sapiens, UniProt Q9H3Y6)
[21] = target: KIT (V559D, V654A) (Homo sapiens, UniProt P10721, V559D/V654A)
[22] = target: STK36 (Homo sapiens, UniProt Q9NRP7)
[23] = target: T2, MST4 (Homo sapiens, UniProt Q9P289)
T2 construct: T7 phage fusion (said for most assays); made in house

[24] = target: FLT3 (R834Q) (Homo sapiens, UniProt P36888, R834Q)
[25] = target: ROCK2 (Homo sapiens, UniProt O75116)
[26] = target: BMPR1B (Homo sapiens, UniProt O00238)
Sequence of BMPR1B (O00238 14-502): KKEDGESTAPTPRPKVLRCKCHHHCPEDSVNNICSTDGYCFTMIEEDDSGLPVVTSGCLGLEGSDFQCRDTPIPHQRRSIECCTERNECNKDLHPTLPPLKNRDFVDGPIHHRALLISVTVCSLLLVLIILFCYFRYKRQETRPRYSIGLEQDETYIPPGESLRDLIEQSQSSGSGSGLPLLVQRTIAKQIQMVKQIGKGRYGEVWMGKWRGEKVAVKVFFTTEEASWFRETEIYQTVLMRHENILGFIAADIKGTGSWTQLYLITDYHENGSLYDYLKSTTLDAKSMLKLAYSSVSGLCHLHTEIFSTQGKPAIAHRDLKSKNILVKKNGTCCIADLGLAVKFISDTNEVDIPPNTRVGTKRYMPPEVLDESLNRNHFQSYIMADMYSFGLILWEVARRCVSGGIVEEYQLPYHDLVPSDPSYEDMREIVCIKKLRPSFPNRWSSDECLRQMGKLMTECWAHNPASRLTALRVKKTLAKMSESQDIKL

[27] = target: PIK3C2G (Homo sapiens, UniProt O75747)
[28] = target: PIK3CA (M1043I) (Homo sapiens, UniProt P42336, M1043I)
[29] = target: ACVR1B (Homo sapiens, UniProt P36896)
[30] = target: TGFBR1 (Homo sapiens, UniProt P36897)
[31] = target: CDC2L1 (Homo sapiens, UniProt P21127)
[32] = target: CDK4-cyclinD1 (Homo sapiens, UniProt P11802)
[33] = target: PRKD2 (Homo sapiens, UniProt Q9BZL6)
[34] = target: BRK (Homo sapiens, UniProt Q13882)
[35] = target: ULK2 (Homo sapiens, UniProt Q8IYT8)
[36] = target: LKB1 (Homo sapiens, UniProt Q15831)
Sequence of LKB1 (Q15831 whole entry): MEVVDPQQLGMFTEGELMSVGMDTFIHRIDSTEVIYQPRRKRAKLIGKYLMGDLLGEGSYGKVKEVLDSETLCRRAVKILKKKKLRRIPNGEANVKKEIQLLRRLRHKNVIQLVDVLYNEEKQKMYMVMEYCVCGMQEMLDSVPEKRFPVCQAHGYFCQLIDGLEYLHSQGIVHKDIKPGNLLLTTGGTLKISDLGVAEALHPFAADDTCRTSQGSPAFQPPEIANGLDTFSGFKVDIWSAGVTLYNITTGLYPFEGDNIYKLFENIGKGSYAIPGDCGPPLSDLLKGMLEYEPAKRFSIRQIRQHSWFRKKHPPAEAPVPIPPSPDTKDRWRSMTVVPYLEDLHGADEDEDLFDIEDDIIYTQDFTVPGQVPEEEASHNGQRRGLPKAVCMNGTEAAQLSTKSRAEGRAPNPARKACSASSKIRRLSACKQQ

[37] = target: MAPKAPK5 (Homo sapiens, UniProt Q8IW41)
[38] = target: JNK1 (Homo sapiens, UniProt P45983)
[39] = target: SRPK1 (Homo sapiens, UniProt Q96SB4)
Sequence of SRPK1 (Q96SB4 whole entry): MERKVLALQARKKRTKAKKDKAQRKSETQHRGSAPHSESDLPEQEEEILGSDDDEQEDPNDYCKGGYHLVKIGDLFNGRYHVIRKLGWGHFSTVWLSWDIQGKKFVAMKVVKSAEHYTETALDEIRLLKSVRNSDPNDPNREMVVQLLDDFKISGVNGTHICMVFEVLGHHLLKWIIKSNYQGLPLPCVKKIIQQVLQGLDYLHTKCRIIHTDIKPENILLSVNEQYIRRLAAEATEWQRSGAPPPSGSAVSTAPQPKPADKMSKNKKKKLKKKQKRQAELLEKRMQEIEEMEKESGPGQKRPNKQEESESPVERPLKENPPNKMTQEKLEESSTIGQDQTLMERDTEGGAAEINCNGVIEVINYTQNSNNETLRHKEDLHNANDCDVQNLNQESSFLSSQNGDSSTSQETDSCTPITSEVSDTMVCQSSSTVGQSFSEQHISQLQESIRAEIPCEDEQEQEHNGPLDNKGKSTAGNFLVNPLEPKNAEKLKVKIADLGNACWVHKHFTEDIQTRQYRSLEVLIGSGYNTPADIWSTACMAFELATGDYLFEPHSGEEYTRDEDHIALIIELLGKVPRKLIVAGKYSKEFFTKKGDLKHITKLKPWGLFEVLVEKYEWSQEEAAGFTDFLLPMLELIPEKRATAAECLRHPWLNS

Cc1cc(Oc2cc(NC(=O)C3CC3)ncn2)ccc1NC(=O)Nc1ccc(Cl)c(C(F)(F)F)c1 [CBT-102]
remaining activity at 1 µM [1]: 95% | remaining activity at 1 µM [2]: 88% | remaining activity at 1 µM [3]: 25% | remaining activity at 1 µM [4]: 84% | remaining activity at 1 µM [5]: 65% | remaining activity at 1 µM [6]: 94% | remaining activity at 1 µM [7]: 4.3% | remaining activity at 1 µM [8]: 23% | remaining activity at 1 µM [9]: 83% | remaining activity at 1 µM [10]: 93% | remaining activity at 1 µM [11]: 19% | remaining activity at 1 µM [12]: 90% | remaining activity at 1 µM [13]: 99% | remaining activity at 1 µM [14]: 0% | remaining activity at 1 µM [15]: 78% | remaining activity at 1 µM [16]: 89% | remaining activity at 1 µM [17]: 100% | remaining activity at 1 µM [18]: 92% | remaining activity at 1 µM [19]: 38% | remaining activity at 1 µM [20]: 99% | remaining activity at 1 µM [21]: 2.8% | remaining activity at 1 µM [22]: 2.5% | remaining activity at 1 µM [23]: 100% | remaining activity at 1 µM [24]: 97% | remaining activity at 1 µM [25]: 100% | remaining activity at 1 µM [26]: 99% | remaining activity at 1 µM [27]: 100% | remaining activity at 1 µM [28]: 100% | remaining activity at 1 µM [29]: 100% | remaining activity at 1 µM [30]: 100% | remaining activity at 1 µM [31]: 36% | remaining activity at 1 µM [32]: 99% | remaining activity at 1 µM [33]: 100% | remaining activity at 1 µM [34]: 89% | remaining activity at 1 µM [35]: 98% | remaining activity at 1 µM [36]: 100% | remaining activity at 1 µM [37]: 93% | remaining activity at 1 µM [38]: 90% | remaining activity at 1 µM [39]: 56%
